Results published in PMC8617627, “Novel DYRK1A Inhibitor Rescues Learning and Memory Deficits in a Mouse Model of Down Syndrome” (Pharmaceuticals, 2021).
Like-named read-outs stand apart in the source and are kept apart here.

How the values were obtained:
Assay in all cases: Kinase profile (33P ATP filter binding)
Format in all cases: biochemical
[1] = target: CK2 (Homo sapiens, UniProt P68400); conditions: read-out: Remaining protein kinase activity
[2] = target: CSK (Homo sapiens, UniProt P41240)
Sequence of CSK (P41240 whole entry): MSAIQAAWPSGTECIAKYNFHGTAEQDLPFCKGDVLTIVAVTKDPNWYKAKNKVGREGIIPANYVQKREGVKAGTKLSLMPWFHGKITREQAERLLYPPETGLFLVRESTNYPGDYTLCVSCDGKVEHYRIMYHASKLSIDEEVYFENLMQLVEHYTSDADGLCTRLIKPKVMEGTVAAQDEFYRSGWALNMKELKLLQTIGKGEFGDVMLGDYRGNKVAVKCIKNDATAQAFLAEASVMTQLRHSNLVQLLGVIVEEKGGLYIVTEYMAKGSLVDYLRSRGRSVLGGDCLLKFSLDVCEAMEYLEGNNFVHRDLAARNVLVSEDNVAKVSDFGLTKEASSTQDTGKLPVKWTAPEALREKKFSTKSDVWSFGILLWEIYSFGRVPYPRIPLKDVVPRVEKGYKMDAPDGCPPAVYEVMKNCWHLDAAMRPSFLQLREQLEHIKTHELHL

[3] = target: T1, ERK8 (Homo sapiens, UniProt Q8TD08); conditions: read-out: Remaining protein kinase activity
T1 sequence (Q8TD08 1-544): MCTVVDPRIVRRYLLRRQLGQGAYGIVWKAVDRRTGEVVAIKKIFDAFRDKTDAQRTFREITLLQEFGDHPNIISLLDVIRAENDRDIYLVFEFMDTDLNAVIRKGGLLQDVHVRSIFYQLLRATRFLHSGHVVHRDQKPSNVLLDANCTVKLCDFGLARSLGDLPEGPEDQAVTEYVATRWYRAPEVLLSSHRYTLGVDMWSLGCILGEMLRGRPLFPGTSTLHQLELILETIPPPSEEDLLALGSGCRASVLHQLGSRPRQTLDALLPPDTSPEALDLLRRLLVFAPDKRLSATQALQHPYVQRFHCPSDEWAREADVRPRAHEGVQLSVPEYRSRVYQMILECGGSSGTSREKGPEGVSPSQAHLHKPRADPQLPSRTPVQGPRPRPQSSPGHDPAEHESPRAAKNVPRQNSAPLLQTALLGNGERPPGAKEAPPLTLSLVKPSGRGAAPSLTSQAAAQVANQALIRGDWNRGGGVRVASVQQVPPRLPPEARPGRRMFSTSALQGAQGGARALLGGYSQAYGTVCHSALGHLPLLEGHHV

[4] = target: JNK1 (Homo sapiens, UniProt P45983)
Sequence of JNK1 (P45983 whole entry, species assumed): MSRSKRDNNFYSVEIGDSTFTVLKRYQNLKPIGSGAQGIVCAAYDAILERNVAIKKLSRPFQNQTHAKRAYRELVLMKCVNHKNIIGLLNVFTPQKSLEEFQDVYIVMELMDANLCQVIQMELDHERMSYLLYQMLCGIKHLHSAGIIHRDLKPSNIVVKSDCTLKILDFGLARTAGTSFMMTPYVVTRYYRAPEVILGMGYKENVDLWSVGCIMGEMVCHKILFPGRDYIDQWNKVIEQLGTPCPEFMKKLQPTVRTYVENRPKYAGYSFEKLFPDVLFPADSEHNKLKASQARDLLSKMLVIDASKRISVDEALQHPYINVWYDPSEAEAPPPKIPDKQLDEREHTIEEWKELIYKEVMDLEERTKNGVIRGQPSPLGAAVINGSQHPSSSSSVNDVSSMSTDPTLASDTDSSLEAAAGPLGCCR

[5] = target: JNK2 (Homo sapiens, UniProt P45984)
Sequence of JNK2 (P45984 whole entry, species assumed): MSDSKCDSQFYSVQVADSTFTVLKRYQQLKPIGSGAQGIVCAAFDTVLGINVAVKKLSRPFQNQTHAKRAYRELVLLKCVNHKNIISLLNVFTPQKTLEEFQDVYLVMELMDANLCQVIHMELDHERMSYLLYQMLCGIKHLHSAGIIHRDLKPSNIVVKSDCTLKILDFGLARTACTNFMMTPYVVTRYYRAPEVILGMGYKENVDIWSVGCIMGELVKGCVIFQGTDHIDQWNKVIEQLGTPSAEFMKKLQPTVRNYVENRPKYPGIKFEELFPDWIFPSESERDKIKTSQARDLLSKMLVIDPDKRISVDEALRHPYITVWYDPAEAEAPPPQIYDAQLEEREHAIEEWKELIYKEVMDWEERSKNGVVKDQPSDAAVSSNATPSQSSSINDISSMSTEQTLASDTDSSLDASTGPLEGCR

[6] = target: T2, MAP4K3 (Homo sapiens, UniProt Q8IVH8)
T2 sequence (Q8IVH8 1-894): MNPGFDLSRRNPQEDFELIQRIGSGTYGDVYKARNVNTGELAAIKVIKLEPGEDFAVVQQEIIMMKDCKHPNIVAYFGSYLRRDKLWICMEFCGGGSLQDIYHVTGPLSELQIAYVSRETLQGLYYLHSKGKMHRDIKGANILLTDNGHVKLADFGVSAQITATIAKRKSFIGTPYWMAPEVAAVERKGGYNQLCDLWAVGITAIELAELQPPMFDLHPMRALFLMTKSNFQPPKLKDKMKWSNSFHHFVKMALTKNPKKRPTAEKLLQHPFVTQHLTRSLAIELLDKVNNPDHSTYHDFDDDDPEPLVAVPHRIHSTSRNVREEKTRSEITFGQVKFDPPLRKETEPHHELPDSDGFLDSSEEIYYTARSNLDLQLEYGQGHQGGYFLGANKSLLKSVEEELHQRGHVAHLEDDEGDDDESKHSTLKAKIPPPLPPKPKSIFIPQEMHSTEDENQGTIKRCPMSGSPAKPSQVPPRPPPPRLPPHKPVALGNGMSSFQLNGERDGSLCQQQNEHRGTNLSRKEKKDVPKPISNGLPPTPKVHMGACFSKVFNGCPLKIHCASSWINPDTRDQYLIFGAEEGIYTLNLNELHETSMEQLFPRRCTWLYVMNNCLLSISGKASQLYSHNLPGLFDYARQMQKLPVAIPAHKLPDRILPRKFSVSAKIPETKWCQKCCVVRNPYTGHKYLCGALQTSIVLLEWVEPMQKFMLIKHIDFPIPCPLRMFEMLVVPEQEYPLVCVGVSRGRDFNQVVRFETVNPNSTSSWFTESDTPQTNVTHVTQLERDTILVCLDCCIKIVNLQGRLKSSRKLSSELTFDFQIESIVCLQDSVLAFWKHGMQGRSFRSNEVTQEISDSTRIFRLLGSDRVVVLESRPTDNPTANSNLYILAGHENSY

[7] = target: MARK2 (Homo sapiens, UniProt Q7KZI7); conditions: read-out: Remaining protein kinase activity
[8] = target: MKK1 (Homo sapiens, UniProt Q02750); conditions: read-out: Remaining protein kinase activity
Sequence of MKK1 (Q02750 whole entry, species assumed): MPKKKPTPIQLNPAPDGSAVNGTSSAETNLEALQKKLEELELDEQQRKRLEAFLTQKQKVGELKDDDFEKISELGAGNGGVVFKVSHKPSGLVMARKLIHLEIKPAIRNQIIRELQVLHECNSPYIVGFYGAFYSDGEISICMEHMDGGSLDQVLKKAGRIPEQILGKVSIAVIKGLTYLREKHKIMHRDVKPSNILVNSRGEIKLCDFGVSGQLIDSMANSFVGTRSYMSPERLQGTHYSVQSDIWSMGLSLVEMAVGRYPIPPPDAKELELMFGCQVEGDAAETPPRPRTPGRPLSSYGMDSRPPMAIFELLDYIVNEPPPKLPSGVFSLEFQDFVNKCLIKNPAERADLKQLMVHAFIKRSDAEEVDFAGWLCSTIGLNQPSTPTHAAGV

[9] = target: MST3 (Homo sapiens, UniProt Q9Y6E0)
Sequence of MST3 (Q9Y6E0 whole entry): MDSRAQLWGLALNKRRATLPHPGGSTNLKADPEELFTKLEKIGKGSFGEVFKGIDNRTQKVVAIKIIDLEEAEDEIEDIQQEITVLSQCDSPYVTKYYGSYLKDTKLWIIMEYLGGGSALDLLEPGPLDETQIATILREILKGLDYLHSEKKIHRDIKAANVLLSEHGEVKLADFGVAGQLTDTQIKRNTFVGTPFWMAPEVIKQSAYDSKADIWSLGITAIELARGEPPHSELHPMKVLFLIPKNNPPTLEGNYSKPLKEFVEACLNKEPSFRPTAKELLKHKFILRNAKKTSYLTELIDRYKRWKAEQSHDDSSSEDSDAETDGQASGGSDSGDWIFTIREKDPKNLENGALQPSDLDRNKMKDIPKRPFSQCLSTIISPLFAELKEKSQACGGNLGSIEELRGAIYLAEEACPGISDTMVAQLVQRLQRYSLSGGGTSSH

[10] = target: MST4 (Homo sapiens, UniProt Q9P289); conditions: read-out: Remaining protein kinase activity
Sequence of MST4 (Q9P289 whole entry): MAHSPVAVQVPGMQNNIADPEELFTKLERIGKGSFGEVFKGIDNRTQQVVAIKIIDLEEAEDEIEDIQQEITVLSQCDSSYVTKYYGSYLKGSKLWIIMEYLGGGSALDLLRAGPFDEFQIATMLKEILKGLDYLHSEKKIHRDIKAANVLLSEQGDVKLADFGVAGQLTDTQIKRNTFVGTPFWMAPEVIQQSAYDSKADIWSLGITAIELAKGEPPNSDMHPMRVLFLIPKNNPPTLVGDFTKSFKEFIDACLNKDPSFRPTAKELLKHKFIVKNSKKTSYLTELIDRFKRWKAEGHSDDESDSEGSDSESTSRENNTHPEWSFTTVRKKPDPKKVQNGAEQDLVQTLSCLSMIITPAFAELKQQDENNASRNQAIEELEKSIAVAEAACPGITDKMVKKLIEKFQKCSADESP

[11] = target: OSR1 (Homo sapiens, UniProt O95747); conditions: read-out: Remaining protein kinase activity
Sequence of OSR1 (O95747 whole entry): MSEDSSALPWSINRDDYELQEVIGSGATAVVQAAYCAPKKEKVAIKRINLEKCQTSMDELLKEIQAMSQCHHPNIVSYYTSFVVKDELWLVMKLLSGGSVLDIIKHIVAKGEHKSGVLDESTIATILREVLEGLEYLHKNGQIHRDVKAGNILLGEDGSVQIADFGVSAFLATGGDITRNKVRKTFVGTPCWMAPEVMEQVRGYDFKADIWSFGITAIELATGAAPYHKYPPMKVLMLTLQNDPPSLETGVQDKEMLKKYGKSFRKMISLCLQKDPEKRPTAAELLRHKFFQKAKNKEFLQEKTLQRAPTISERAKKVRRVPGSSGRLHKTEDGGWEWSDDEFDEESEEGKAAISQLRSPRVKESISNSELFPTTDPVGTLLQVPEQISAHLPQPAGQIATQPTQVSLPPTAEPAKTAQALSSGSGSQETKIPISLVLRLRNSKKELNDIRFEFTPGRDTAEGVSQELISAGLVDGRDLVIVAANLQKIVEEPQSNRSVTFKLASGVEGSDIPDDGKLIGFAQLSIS

[12] = target: RSK2 (Homo sapiens, UniProt P51812); conditions: read-out: Remaining protein kinase activity
Sequence of RSK2 (P51812 whole entry, species assumed): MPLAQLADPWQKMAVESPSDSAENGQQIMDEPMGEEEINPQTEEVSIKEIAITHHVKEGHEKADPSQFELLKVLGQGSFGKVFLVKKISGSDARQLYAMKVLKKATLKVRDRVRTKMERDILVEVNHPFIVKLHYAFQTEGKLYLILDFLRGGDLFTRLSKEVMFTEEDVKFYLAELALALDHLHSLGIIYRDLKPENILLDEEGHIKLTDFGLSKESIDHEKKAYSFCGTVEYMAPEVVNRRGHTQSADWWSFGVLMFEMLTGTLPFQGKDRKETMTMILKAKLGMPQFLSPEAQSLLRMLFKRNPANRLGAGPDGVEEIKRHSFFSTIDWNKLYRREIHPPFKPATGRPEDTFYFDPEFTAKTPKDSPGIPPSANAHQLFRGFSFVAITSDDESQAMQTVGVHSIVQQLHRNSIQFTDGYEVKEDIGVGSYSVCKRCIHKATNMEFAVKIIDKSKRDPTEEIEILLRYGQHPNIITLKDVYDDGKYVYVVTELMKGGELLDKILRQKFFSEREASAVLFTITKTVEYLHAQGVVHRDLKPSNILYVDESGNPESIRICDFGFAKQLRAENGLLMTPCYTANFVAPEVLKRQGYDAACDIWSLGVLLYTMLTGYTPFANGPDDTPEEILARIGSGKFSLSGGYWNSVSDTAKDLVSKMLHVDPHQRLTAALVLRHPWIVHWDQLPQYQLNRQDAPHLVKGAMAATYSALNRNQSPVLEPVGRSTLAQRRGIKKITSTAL

[13] = target: YES1 (Homo sapiens, UniProt P07947); conditions: read-out: Remaining protein kinase activity
Sequence of YES1 (P07947 whole entry): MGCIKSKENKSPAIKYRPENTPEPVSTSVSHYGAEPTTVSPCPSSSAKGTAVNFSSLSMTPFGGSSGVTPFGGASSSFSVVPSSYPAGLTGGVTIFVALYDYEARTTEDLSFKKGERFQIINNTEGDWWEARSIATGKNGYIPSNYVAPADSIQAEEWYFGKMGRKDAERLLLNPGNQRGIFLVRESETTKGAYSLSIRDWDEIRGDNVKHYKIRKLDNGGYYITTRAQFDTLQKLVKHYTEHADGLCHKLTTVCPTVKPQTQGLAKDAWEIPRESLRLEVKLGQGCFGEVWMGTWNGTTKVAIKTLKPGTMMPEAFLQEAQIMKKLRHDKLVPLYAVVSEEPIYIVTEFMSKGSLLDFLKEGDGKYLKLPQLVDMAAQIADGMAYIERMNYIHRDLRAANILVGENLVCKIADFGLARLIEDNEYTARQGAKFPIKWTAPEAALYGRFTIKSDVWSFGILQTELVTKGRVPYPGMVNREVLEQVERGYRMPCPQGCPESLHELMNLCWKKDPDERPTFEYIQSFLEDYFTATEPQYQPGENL

Sequence of CK2 (P68400 whole entry): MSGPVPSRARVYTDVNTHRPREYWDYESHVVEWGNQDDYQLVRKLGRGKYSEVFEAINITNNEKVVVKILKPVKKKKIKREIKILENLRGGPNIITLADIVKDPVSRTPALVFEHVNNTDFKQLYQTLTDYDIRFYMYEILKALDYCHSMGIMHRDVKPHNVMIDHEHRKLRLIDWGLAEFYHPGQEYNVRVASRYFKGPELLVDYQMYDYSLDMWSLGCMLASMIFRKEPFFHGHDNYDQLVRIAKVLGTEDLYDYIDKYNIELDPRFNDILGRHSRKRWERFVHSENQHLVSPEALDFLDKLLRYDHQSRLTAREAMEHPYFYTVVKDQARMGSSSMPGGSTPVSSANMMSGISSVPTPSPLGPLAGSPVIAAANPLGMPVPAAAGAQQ

In the case of COc1ccc2sc(-c3cncc(N)c3)nc2c1 [compound 1, 5-(5-Methoxybenzo[d]thiazol-2-yl)pyridin-3-amine], the remaining activity at 1 µM ([1]; CK2, 1 μM) is reported as 103%, the remaining activity at 100 µM ([1]; CK2) is reported as 21% and the “Remaining protein kinase activity” value ([2]; 1 μM) is reported as 116%. For the same molecule, the “Remaining protein kinase activity” value ([2]; 100 μM) was 78%, the remaining activity at 1 µM ([3]; ERK8, 1 μM) was 86% and the remaining activity at 100 µM ([3]; ERK8, 100 μM) was 4%. For the same molecule, the “Remaining protein kinase activity” value ([4]; 1 μM) was 112%, the “Remaining protein kinase activity” value ([4]; 100 μM) was 94% and the “Remaining protein kinase activity” value ([5]; 1 μM) was 123%. For the same molecule, the “Remaining protein kinase activity” value ([5]; 100 μM) was 104%, the “Remaining protein kinase activity” value ([6]; 1 μM) was 98% and the “Remaining protein kinase activity” value ([6]; 100 μM) was 22%. It also gave a remaining activity at 1 µM ([7]; MARK2, 1 μM) of 112%, a remaining activity at 100 µM ([7]; MARK2, 100 μM) of 62% and a remaining activity at 1 µM ([8]; MKK1, 1 μM) of 101%. For the same molecule, the remaining activity at 100 µM ([8]; MKK1, 100 μM) was 84%, the “Remaining protein kinase activity” value ([9]; 1 μM) was 114% and the “Remaining protein kinase activity” value ([9]; 100 μM) was 96%. It also gave a remaining activity at 1 µM ([10]; MST4, 1 μM) of 101%, a remaining activity at 100 µM ([10]; MST4, 100 μM) of 72% and a remaining activity at 1 µM ([11]; OSR1, 1 μM) of 128%. For the same molecule, the remaining activity at 100 µM ([11]; OSR1, 100 μM) was 111%, the remaining activity at 1 µM ([12]; RSK2, 1 μM) was 115% and the remaining activity at 100 µM ([12]; RSK2, 100 μM) was 56%. The remaining activity at 1 µM ([13]; YES1, 1 μM) was 122% and the remaining activity at 100 µM ([13]; YES1, 100 μM) was 58%.

In the case of COc1ccc2sc(-c3cncc(NC(C)=O)c3)nc2c1 [PST-001, N-(5-(5-Methoxybenzo[d]thiazol-2-yl)pyridin-3-yl)acetamide], the remaining activity at 100 µM ([1]; CK2) is reported as 95%, the remaining activity at 1 µM [1] is reported as 102% and the “Remaining protein kinase activity” value ([2]; 1 μM) is reported as 121%. The “Remaining protein kinase activity” value ([2]; 100 μM) was 126%, the remaining activity at 1 µM [3] was 89% and the remaining activity at 100 µM [3] was 28%. The “Remaining protein kinase activity” value ([4]; 1 μM) was 113%, the “Remaining protein kinase activity” value ([4]; 100 μM) was 130% and the “Remaining protein kinase activity” value ([5]; 1 μM) was 126%. The “Remaining protein kinase activity” value ([5]; 100 μM) was 129%, the “Remaining protein kinase activity” value ([6]; 1 μM) was 111% and the “Remaining protein kinase activity” value ([6]; 100 μM) was 94%. For the same molecule, the remaining activity at 1 µM [7] was 116%, the remaining activity at 100 µM [7] was 106% and the remaining activity at 1 µM [8] was 117%. The remaining activity at 100 µM [8] was 135%, the “Remaining protein kinase activity” value ([9]; 1 μM) was 118% and the “Remaining protein kinase activity” value ([9]; 100 μM) was 113%. The remaining activity at 1 µM [10] was 112%, the remaining activity at 100 µM [10] was 113% and the remaining activity at 1 µM [11] was 120%. The remaining activity at 100 µM [11] was 136%, the remaining activity at 1 µM [12] was 113% and the remaining activity at 100 µM [12] was 100%. The remaining activity at 1 µM [13] was 130% and the remaining activity at 100 µM [13] was 128%.
